Source: patent US9102617B2, “Antimicrobial agents” (Rutgers, The State University of New Jersey, priority 2010, dated 2015)
pIC50: −log10 of the molar value. Read-outs that look alike come from different tables or passages of the source.

How the values were obtained:
[1] = system: methicillin-sensitive Staphylococcus aureus (MSSA); experiment: Planktonic antibacterial broth microdilution assay (Test C), MIC vs MSSA; type: cell-based; settings: 37° C., growth read after 24 to 48 hours at OD 600 nm
Protocol: (§1) Test C. Planktonic (Free-Living) Antibacterial Assay.
(§2) Planktonic antibacterial activity can be determined using a broth microdilution assay in which log-phase bacteria are grown at 37° C. in appropriate medium containing two-fold serial dilutions of a compound to yield a final concentration ranging from 256 to 0.1 μg/ml. For determination of minimal inhibitory concentration (MIC) values, bacterial growth is monitored after 24 to 48 hours by measuring optical density at 600 nm. […] The minimal inhibitory concentration against methicillin-sensitive Staphylococcus aureus (MSSA) for each of the following representative compounds of the invention was determined to be less than 32 μg/ml.

S. aureus FtsZ = target: T1, S. aureus FtsZ (Staphylococcus aureus, UniProt P0A031); experiment: Inhibition of S. aureus FtsZ polymerization and GTPase activity (Tests A and B); type: biochemical
T1 sequence (P0A031 1-390): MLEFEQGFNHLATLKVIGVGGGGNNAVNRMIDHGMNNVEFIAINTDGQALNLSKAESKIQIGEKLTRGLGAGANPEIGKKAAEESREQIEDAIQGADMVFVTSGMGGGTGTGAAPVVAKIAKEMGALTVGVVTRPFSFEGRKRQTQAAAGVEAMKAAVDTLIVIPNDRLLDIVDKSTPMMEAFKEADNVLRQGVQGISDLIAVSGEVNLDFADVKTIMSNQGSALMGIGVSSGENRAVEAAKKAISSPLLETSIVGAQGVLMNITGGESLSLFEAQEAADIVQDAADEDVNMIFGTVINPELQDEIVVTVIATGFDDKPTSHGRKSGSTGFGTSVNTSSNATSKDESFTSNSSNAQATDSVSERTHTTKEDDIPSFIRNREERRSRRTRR
Source text: Test A. Determining the Impact of the Compounds of the Invention on FtsZ Polymerization Dynamics.
Compound-induced alteration in FtsZ polymerization dynamics can be tested using a light scattering-based […] using purified FtsZ. Upon addition of GTP, FtsZ self-associates to form polymeric structures that scatter light at 340 nm to a greater extent than the monomeric protein. The impact of the compounds of the invention on the polymerization dynamics of FtsZ can be detected by an increase of decrease in the extent of GTP-induced light scattering relative to that observed in the absence of compound. Quantitation of the overall extent of light scattering as a function of compound concentration to yield a compound concentration at which FtsZ polymerization is inhibited by 50% (IC50) provides an indication of the potency of that compound at altering FtsZ polymerization dynamics.
Test B. Determining the FtsZ GTPase Inhibitory Activities of Compounds of the Invention.
Compound-induced inhibition of the FtsZ GTPase activity can be tested using a colorimetric assay in which the inorganic phosphate (Pi) released upon FtsZ-catalyzed hydrolysis of GTP reacts with malachite green and molybdate under acidic conditions to form a ternary complex that absorbs light at 650 nm, thus enabling quantitation of Pi levels by recording the absorbance at 650 nm (A650). Differing concentrations of test compound are combined with GTP and the reactions (run in triplicate) are initiated by addition of FtsZ. After incubation for 60 minutes at room temperature, the reactions are stopped by addition of an acidic malachite green-molybdate solution containing malachite green oxalate, sodium molybdate, Triton X-100, and 0.7 N HCl. For the purposes of generating a standard curve, each experiment includes reactions containing known concentrations of monobasic potassium phosphate (KH2PO4) in place of FtsZ. Ten minutes following addition of the acidic malachite green-molybdate solution, the A650 value for each reaction is recorded. A standard curve of A650 versus Pi concentration is constructed using the average A650 value obtained for each known KH2PO4 concentration. This standard curve is then fit by linear regression analysis to yield the quantitative relationship between A650 and Pi concentration. The resulting relationship as well as the average A650 value for each test reaction is used to calculate the concentrations of Pi released by the GTPase activity of FtsZ. The released Pi concentration in the absence of test compound is set as the mark for 100% GTPase activity, and is used to calculate the percent GTPase activities in reactions containing test compounds. The percent GTPase activity is then plotted as a function of log (compound concentration), with the resulting curves being fit using an appropriate sigmoidal relationship to obtain the compound concentrations at which GTPase activity is inhibited by 50% (IC50 values).

[2] = system: methicillin-resistant Staphylococcus aureus (MRSA); experiment: Planktonic antibacterial broth microdilution assay (Test C), MIC vs MRSA; type: cell-based; settings: read-out: MIC vs MRSA
Protocol: as §1, §2
Representative compounds of the invention were also tested against methicillin-resistant Staphylococcus aureus, vancomycin-resistant Enterococcus faecalis and Enterococcus faecium (VRE), vancomycin-sensitive Enterococcus faecalis and Enterococcus faecium (VSE).

[3] = S. aureus FtsZ, polymerization and/or GTPase activity, read-out: IC50 (compound concentration at which FtsZ polymerization and/or GTPase activity is inhibited by 50%)
[4] = broth microdilution, 37° C., growth read after 24 to 48 hours at OD 600 nm

Row | SMILES | MIC [1] [µg/mL] | pIC50 (S. aureus FtsZ; [3]) | MIC [2, 4] [µg/mL] | MIC [2] [µg/mL] | pIC50 (S. aureus FtsZ)
1 | CC(C)(C)c1ccc(-c2cccc3cc(-c4ccccc4CNC(=N)N)ccc23)cc1 [Example 104] | ≤ 8 | > 3.91 | – | – | –
2 | CC(C)(C)c1ccc(-c2cccc3c(CN)cccc23)cc1 [Example 41] | ≤ 8 | > 3.76 | ≤ 8 | – | –
3 | CC(C)(C)c1ccc(-c2cccc3cc(-c4ccccc4C[N+](C)(C)C)ccc23)cc1.[I-] [Example 63] | ≤ 8 | > 4.03 | ≤ 8 | – | –
4 | CCC[n+]1cc(-c2cc(OC)c(OC)c(-c3ccc(C(C)(C)C)cc3)c2)cc2cc(OC)c(OC)cc21.[I-] [Example 19] | ≤ 8 | > 4.10 | ≤ 8 | – | –
5 | C[n+]1cccc2cc(-c3ccc(-c4ccccc4)cc3)ccc21.[I-] [Example 114] | ≤ 8 | > 3.93 | ≤ 8 | – | –
6 | NCc1cccc(-c2ccc3c(-c4cccc(-c5ccccc5)c4)cccc3c2)c1 [Example 70] | ≤ 8 | – | ≤ 8 | – | –
7 | CC(C)(C)c1ccc(-c2cccc3c(CNC(=N)N)cccc23)cc1 [Example 42] | ≤ 8 | > 3.82 | ≤ 8 | – | –
8 | C[n+]1ccc2c(-c3ccc(-c4ccccc4)cc3)cccc2c1.[I-] [Example 112] | ≤ 8 | – | – | 32 | > 3.93
9 | CC(C)(C)c1ccc(-c2cccc3c(CCN=C(N)N)cccc23)cc1 [Example 37] | ≤ 8 | – | ≤ 8 | – | –
10 | COc1cc(-c2cc3ccccc3[n+](C)c2)cc(-c2ccc(C(C)(C)C)cc2)c1OC.[I-] [Example 11] | ≤ 8 | – | ≤ 8 | – | –
11 | C[n+]1ccc(-c2ccc(-c3ccccc3)cc2)c2ccccc21.[I-] [Example 120] | ≤ 8 | – | – | > 32 | > 3.93
